According to PubChem BioAssay AID296 (DTP/NCI, 2004):
Values joined by “and” are separate entries in the source; they are usually repeats but may differ in a detail not shown here. Equal entries are not always repeated. Records with an inconclusive call do not appear.

Test system: MX-1 breast xenograft, nude mice, tumor weight T/C
Experiment: NCI In Vivo Anticancer Drug Screen. Data for tumor model Human Mammary Carcinoma MX-1 Xenograft (intrarenal inoculation) in NU/NU Swiss (nude) mice
Details: endpoint: mean tumor weight change, higher = larger tumour
Summary of the method: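 Antitumour effect measured in vivo against vehicle controls, expressed as T/C.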

[1] = dose: 12.5 mg/kg/injection, schedule: Q04DX003 (sc), vehicle: saline
[2] = dose: 25.0 mg/kg/injection, schedule: Q04DX003 (sc), vehicle: saline

## CCC(=O)N(C)[C@@H](C)C(=O)O[C@H]1CC(=O)N(C)c2cc(cc(OC)c2Cl)C/C(C)=C/C=C[C@@H](OC)[C@@]2(O)C[C@H](OC(=O)N2)[C@@H](C)[C@@H]2O[C@@]12C
dose: 0.07 mg/kg/injection, schedule: Q04DX003 (sc), vehicle: saline + alcohol
  T/C: 117 % of control
dose: 0.13 mg/kg/injection, schedule: Q04DX003 (sc), vehicle: saline + alcohol
  T/C: 98 % of control
dose: 0.25 mg/kg/injection, schedule: Q04DX003 (sc), vehicle: saline + alcohol
  T/C: 88 % of control
dose: 0.5 mg/kg/injection, schedule: Q04DX003 (sc), vehicle: saline + alcohol
  T/C: 7 % of control

## CCCCOC(=O)/C=C(\Br)C(=O)OCCCC
dose: 50.0 mg/kg/injection, schedule: Q01DX010 (sc), vehicle: saline with Tween-80
  T/C: 102 % of control
dose: 100.0 mg/kg/injection, schedule: Q01DX010 (sc), vehicle: saline with Tween-80
  T/C: 68 % of control
dose: 200.0 mg/kg/injection, schedule: Q01DX010 (sc), vehicle: saline with Tween-80
  T/C: 191 % of control
dose: 400.0 mg/kg/injection, schedule: Q01DX010 (sc), vehicle: saline with Tween-80
  T/C: 205 % of control

## COc1cccc2c1C(=O)c1c(O)c3c(c(O)c1C2=O)C[C@@](O)(C(=O)CO)C[C@@H]3OC1CC(OC(C)=O)C(OC(C)=O)C(C)O1 (stereo not given in full)
dose: 6.25 mg/kg/injection, schedule: Q01DX010 (sc), vehicle: distilled water + Tween-80
  T/C: 82 % of control
dose: 12.5 mg/kg/injection, schedule: Q01DX010 (sc), vehicle: distilled water + Tween-80
  T/C: 96 % of control

## CC1=CC(=NN=c2cc(C)n([O-])c(C)c2)C=C(C)[N+]1=O
dose: 300.0 mg/kg/injection, schedule: Q04DX003 (sc), vehicle: suspension in saline
  T/C: 90 % of control
dose: 600.0 mg/kg/injection, schedule: Q04DX003 (sc), vehicle: suspension in saline
  T/C: 36 % of control
dose: 1200.0 mg/kg/injection, schedule: Q04DX003 (sc), vehicle: suspension in saline
  T/C: 112 % of control
dose: 2400.0 mg/kg/injection, schedule: Q04DX003 (sc), vehicle: suspension in saline
  T/C: 32 % of control

## N=[N+]=CC(=O)OCC(N)C(=O)O (stereo not given)
dose: 3.13 mg/kg/injection, schedule: Q01DX010 (sc), vehicle: saline
  T/C: -57 % of control and -53 % of control
dose: 6.25 mg/kg/injection, schedule: Q01DX010 (sc), vehicle: saline
  T/C: -69 % of control and -54 % of control
dose: 12.5 mg/kg/injection, schedule: Q01DX010 (sc), vehicle: saline
  T/C: -81 % of control and -71 % of control
dose: 25.0 mg/kg/injection, schedule: Q01DX010 (sc), vehicle: saline
  T/C: -80 % of control

## BrC1CC(Br)c2c1c1c(c3c2C(Br)CC3Br)C(Br)CC1Br (stereo not given)
dose: 300.0 mg/kg/injection, schedule: Q04DX003 (sc), vehicle: water
  T/C: 92 % of control
dose: 600.0 mg/kg/injection, schedule: Q04DX003 (sc), vehicle: water
  T/C: 104 % of control
dose: 1200.0 mg/kg/injection, schedule: Q04DX003 (sc), vehicle: water
  T/C: 120 % of control
dose: 2400.0 mg/kg/injection, schedule: Q04DX003 (sc), vehicle: water
  T/C: 50 % of control

## CC(C)(C[NH-])C[NH-].[Cl][Pt+2][Cl]
dose: 1.5 mg/kg/injection, schedule: Q04DX003 (ip), vehicle: other
  T/C: 117 % of control
dose: 1.5 mg/kg/injection, schedule: Q04DX003 (ip), vehicle: water
  T/C: 4 % of control
dose: 3.0 mg/kg/injection, schedule: Q04DX003 (ip), vehicle: other
  T/C: 112 % of control
dose: 3.0 mg/kg/injection, schedule: Q04DX003 (ip), vehicle: water
  T/C: -58 % of control
dose: 6.0 mg/kg/injection, schedule: Q04DX003 (ip), vehicle: water
  T/C: -84 % of control

## O=[N+]([O-])c1ccc(-n2[nH]nnc2=S)cc1
dose: 200.0 mg/kg/injection, schedule: Q04DX003 (sc), vehicle: Klucel (hydroxypropylcellulose) (HPC)
  T/C: 158 % of control
dose: 400.0 mg/kg/injection, schedule: Q04DX003 (sc), vehicle: Klucel (hydroxypropylcellulose) (HPC)
  T/C: 151 % of control
dose: 800.0 mg/kg/injection, schedule: Q04DX003 (sc), vehicle: Klucel (hydroxypropylcellulose) (HPC)
  T/C: 169 % of control

## O=C1c2ccccc2C(=O)c2c(NCCNCCO)ccc(NCCNCCO)c21
dose: 4.0 mg/kg/injection, schedule: Q01DX010 (ip), vehicle: water
  T/C: 59 % of control
dose: 8.0 mg/kg/injection, schedule: Q01DX010 (ip), vehicle: water
  T/C: 80 % of control
dose: 13.33 mg/kg/injection, schedule: Q04DX003 (ip), vehicle: water
  T/C: 45 % of control
dose: 13.33 mg/kg/injection, schedule: Q04DX003 (sc), vehicle: water
  T/C: 65 % of control
dose: 16.0 mg/kg/injection, schedule: Q01DX010 (ip), vehicle: water
  T/C: 61 % of control
dose: 16.0 mg/kg/injection, schedule: Q01DX010 (sc), vehicle: water
  T/C: 13 % of control and 25 % of control
dose: 26.65 mg/kg/injection, schedule: Q04DX003 (sc), vehicle: water
  T/C: 32 % of control
dose: 32.0 mg/kg/injection, schedule: Q01DX010 (ip), vehicle: water
  T/C: 20 % of control
dose: 53.3 mg/kg/injection, schedule: Q04DX003 (ip), vehicle: water
  T/C: 31 % of control
dose: 53.3 mg/kg/injection, schedule: Q04DX003 (sc), vehicle: water
  T/C: 31 % of control

## O=C(O)c1cc(C(=O)O)c(C(=O)O)cc1C(=O)O.[NH2-].[NH2-].[NH2-].[NH2-].[Pt+2].[Pt+2]
dose: 1.25 mg/kg/injection, schedule: Q04DX003 (ip), vehicle: water
  T/C: 113 % of control
dose: 5.0 mg/kg/injection, schedule: Q04DX003 (ip), vehicle: water
  T/C: 97 % of control
dose: 10.0 mg/kg/injection, schedule: Q04DX003 (ip), vehicle: water
  T/C: 60 % of control and 76 % of control
dose: 20.0 mg/kg/injection, schedule: Q04DX003 (ip), vehicle: water
  T/C: 66 % of control
dose: 40.0 mg/kg/injection, schedule: Q04DX003 (ip), vehicle: water
  T/C: 26 % of control
dose: 80.0 mg/kg/injection, schedule: Q04DX003 (ip), vehicle: water
  T/C: 15 % of control

## C[n+]1ccc(Nc2ccc(NC(=O)c3ccc(Nc4cc[n+](C)c5ccc(N)cc45)cc3)cc2)cc1
dose: 50.0 mg/kg/injection, schedule: Q04DX003 (sc), vehicle: distilled water + Tween-80
  T/C: 59 % of control

## [N-]=[N+]=CC(=O)CCC(N)C(=O)O (stereo not given)
dose: 0.1 mg/kg/injection, schedule: Q01DX010 (sc), vehicle: saline
  T/C: -45 % of control
dose: 0.1 mg/kg/injection, schedule: Q02DX005 (sc), vehicle: saline
  T/C: 3 % of control
dose: 0.2 mg/kg/injection, schedule: Q01DX010 (sc), vehicle: saline
  T/C: -64 % of control
dose: 0.2 mg/kg/injection, schedule: Q02DX005 (sc), vehicle: saline
  T/C: -13 % of control
dose: 0.4 mg/kg/injection, schedule: Q01DX010 (sc), vehicle: saline
  T/C: -80 % of control
dose: 0.8 mg/kg/injection, schedule: Q02DX005 (sc), vehicle: saline
  T/C: -90 % of control
dose: 1.6 mg/kg/injection, schedule: Q02DX005 (sc), vehicle: saline
  T/C: -92 % of control
dose: 3.12 mg/kg/injection, schedule: Q04DX003 (sc), vehicle: DMSO
  T/C: 11 % of control
dose: 3.13 mg/kg/injection, schedule: Q04DX003 (sc), vehicle: saline
  T/C: 1 % of control
dose: 3.2 mg/kg/injection, schedule: Q02DX005 (sc), vehicle: saline
  T/C: -100 % of control
dose: 6.25 mg/kg/injection, schedule: Q04DX003 (sc), vehicle: DMSO
  T/C: 15 % of control
dose: 6.25 mg/kg/injection, schedule: Q04DX003 (sc), vehicle: saline
  T/C: 1 % of control
dose: 12.5 mg/kg/injection, schedule: Q04DX003 (sc), vehicle: DMSO
  T/C: 18 % of control
[1]
  T/C: 1 % of control
dose: 25.0 mg/kg/injection, schedule: Q04DX003 (sc), vehicle: DMSO
  T/C: 7 % of control
[2]
  T/C: -7 % of control

## CCOC(OCC)C(=O)OCC(=O)[C@]1(O)Cc2c(O)c3c(c(O)c2[C@@H](OC2CC(N)C(O)C(C)O2)C1)C(=O)c1c(OC)cccc1C3=O (stereo not given in full)
dose: 4.0 mg/kg/injection, schedule: Q01DX010 (sc), vehicle: water
  T/C: 27 % of control and 44 % of control

## CNc1nc2c(N)ncnc2n1C1OC(CO)C(O)C1O (stereo not given)
[1]
  T/C: 111 % of control
[2]
  T/C: 92 % of control
dose: 50.0 mg/kg/injection, schedule: Q04DX003 (sc), vehicle: saline
  T/C: 60 % of control

## CC(/C=C/c1ccccc1)=Nc1ccccc1
dose: 150.0 mg/kg/injection, schedule: Q04DX003 (sc), vehicle: saline with Tween-80
  T/C: 71 % of control
dose: 300.0 mg/kg/injection, schedule: Q04DX003 (sc), vehicle: saline with Tween-80
  T/C: 83 % of control
dose: 600.0 mg/kg/injection, schedule: Q04DX003 (sc), vehicle: saline with Tween-80
  T/C: 69 % of control
dose: 1200.0 mg/kg/injection, schedule: Q04DX003 (sc), vehicle: saline with Tween-80
  T/C: 93 % of control

## O=C1CN(CN2CCOCC2)C(=O)CN1CN1CCOCC1
dose: 25.0 mg/kg/injection, schedule: Q01DX010 (sc), vehicle: suspension in saline
  T/C: 117 % of control
dose: 50.0 mg/kg/injection, schedule: Q01DX010 (sc), vehicle: suspension in saline
  T/C: 119 % of control
dose: 100.0 mg/kg/injection, schedule: Q01DX010 (sc), vehicle: suspension in saline
  T/C: 161 % of control
dose: 200.0 mg/kg/injection, schedule: Q01DX010 (sc), vehicle: suspension in saline
  T/C: 87 % of control
